Measured values from ChEMBL document CHEMBL1153648, “1,4-Benzodiazepin-2-one derived neurokinin-1 receptor antagonists” (Bioorg Med Chem Lett, 1997).

Key:
Substance-P receptor [1] = biological target: T1, Substance-P receptor (Homo sapiens, UniProt P25103); assay: Tested for affinity against NK-1(Neurokinin-1) receptor expressed as pKi
Substance-P receptor [2] = biological target: T1, Substance-P receptor; assay: Concentration required for 50% inhibition of neurokinin-1 receptor
[3] = biological target: T2, Cholecystokinin receptor type A (Homo sapiens, UniProt P32238); assay: Concentration required for 50% inhibition of cholecystokinin A(CCK A)
T2 sequence (P32238 whole entry): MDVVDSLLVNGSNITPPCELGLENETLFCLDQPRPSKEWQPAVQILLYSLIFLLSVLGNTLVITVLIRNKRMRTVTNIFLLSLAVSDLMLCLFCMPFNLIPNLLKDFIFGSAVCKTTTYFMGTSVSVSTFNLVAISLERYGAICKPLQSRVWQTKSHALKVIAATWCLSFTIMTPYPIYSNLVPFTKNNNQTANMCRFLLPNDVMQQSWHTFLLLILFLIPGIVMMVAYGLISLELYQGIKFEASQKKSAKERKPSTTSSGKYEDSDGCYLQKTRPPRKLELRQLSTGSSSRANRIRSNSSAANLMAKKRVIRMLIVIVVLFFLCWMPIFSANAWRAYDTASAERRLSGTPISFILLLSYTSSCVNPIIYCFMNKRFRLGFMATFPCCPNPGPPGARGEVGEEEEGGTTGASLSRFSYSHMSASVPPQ

T1 sequence (P25103 whole entry): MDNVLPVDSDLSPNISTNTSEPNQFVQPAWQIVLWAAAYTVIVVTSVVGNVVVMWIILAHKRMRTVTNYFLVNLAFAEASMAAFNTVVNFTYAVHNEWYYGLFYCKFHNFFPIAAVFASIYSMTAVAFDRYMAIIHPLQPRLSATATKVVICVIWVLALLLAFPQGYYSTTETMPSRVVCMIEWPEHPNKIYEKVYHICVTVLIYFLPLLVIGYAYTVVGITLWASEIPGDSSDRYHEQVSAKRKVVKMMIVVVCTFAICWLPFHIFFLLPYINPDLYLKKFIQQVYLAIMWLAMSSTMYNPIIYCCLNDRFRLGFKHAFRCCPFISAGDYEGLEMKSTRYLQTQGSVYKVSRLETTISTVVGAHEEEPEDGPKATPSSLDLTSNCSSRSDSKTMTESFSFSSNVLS

SMILES | Ki (Substance-P receptor [1]) | other results
CN(Cc1cc(C(F)(F)F)cc(C(F)(F)F)c1)C(=O)N1CC(=O)Nc2ccccc2C1CN1CCOCC1 (stereo not given) | 794 nM | 
O=C1CN(C(=O)NCc2cc(C(F)(F)F)cc(C(F)(F)F)c2)C(c2ccccc2)c2ccccc2N1 (stereo not given) | 631 nM | 
CC(=O)NC(Cc1c[nH]c2ccccc12)C(=O)N(C)Cc1ccccc1 (stereo not given) |  | IC50 (Substance-P receptor [2]): 750 nM
CCCCCN(CCCCC)C(=O)C(Cc1c[nH]c2ccccc12)NC(=O)c1ccc(Cl)c(Cl)c1 (stereo not given) |  | IC50 [3]: 190 nM
CC1c2ccccc2N(C)C(=O)CN1C(=O)N(C)Cc1cc(C(F)(F)F)cc(C(F)(F)F)c1 (stereo not given) | 1000 nM | 
CN(Cc1ccccc1)C(=O)N1CC(=O)Nc2ccccc2C1c1ccccc1 (stereo not given) | 1000 nM | 

The next lines start with results.

Ki (Substance-P receptor [1]) | SMILES | other results
10 nM | CN(Cc1cc(C(F)(F)F)cc(C(F)(F)F)c1)C(=O)N1CC(=O)Nc2ccccc2C1c1ccccc1 (stereo not given) | 
31.6 nM | CC1c2ccccc2NC(=O)CN1C(=O)N(C)Cc1cc(C(F)(F)F)cc(C(F)(F)F)c1 (stereo not given) | 
316 nM | COC(=O)C1c2ccccc2NC(=O)CN1C(=O)N(C)Cc1cc(C(F)(F)F)cc(C(F)(F)F)c1 (stereo not given) | 
39.8 nM | CC1c2ccccc2NCCN1C(=O)N(C)Cc1cc(C(F)(F)F)cc(C(F)(F)F)c1 (stereo not given) | 
